≈ marks a conversion by molar mass, not a printed value.
What was measured:
HEL [1] = test: Cytotoxic concentration reducing HEL cell growth by 50%.; assay type: functional; conditions: Homo sapiens
HEL [2] = test: Minimum cytotoxic concentration against HEL cell morphology.; assay type: functional; conditions: Homo sapiens
Human alphaherpesvirus 3 [3] = test: Antiviral activity was tested against TK- Varicella-Zoster virus 07/1 which reduces virus plaque formation by 50%; assay type: functional, organism-based
Human alphaherpesvirus 3 [4] = test: Antiviral activity was tested against TK+ Varicella-Zoster virus OKA which reduces virus plaque formation by 50%; assay type: functional, organism-based
Human alphaherpesvirus 3 [5] = test: Antiviral activity was tested against TK+ Varicella-Zoster virus YS which reduces virus plaque formation by 50%; assay type: functional, organism-based
Human alphaherpesvirus 3 [6] = test: Antiviral activity was tested against TK- Varicella-Zoster virus YS/R which reduces virus plaque formation by 50%; assay type: functional, organism-based
Human betaherpesvirus 5 [7] = test: Antiviral activity was tested against human cytomegalovirus AD-169 which reduces virus plaque formation by 50%; assay type: functional, organism-based
Human betaherpesvirus 5 [8] = test: Antiviral activity was tested against human cytomegalovirus Davis which reduces virus plaque formation by 50%; assay type: functional, organism-based

| Compound | CC50 (HEL [1]) | MCC (HEL [2]) | IC50 (Human alphaherpesvirus 3 [3]) | IC50 (Human alphaherpesvirus 3 [4]) | IC50 (Human alphaherpesvirus 3 [5]) | IC50 (Human alphaherpesvirus 3 [6]) | IC50 (Human betaherpesvirus 5 [7]) | IC50 (Human betaherpesvirus 5 [8]) |
| --- | --- | --- | --- | --- | --- | --- | --- | --- |
| Nc1nc2c(ncn2COCCO)c(=O)[nH]1 [ACYCLOVIR] | > 200 µg/mL | > 50 µg/mL | 6.5 µg/mL (≈ 28.9 µM) | 0.35 µg/mL (≈ 1.55 µM) | 0.38 µg/mL (≈ 1.69 µM) | 3.1 µg/mL (≈ 13.8 µM) | – | – |
| O=c1[nH]c(=O)n([C@H]2C[C@H](O)[C@@H](CO)O2)cc1/C=C/Br [BRIVUDINE] | > 200 µg/mL | > 50 µg/mL | 6.8 µg/mL (≈ 20.4 µM) | 0.002 µg/mL (≈ 0.006 µM) | 0.003 µg/mL (≈ 0.00901 µM) | 6.4 µg/mL (≈ 19.2 µM) | – | – |
| Nc1ccn(C[C@@H](CO)OCP(=O)(O)O)c(=O)n1.O.O [CIDOFOVIR] | > 50 µg/mL | > 50 µg/mL | – | – | – | – | 0.1 µg/mL | 0.3 µg/mL |
| Nc1nc2c(ncn2COC(CO)CO)c(=O)[nH]1 [GANCICLOVIR] | > 50 µg/mL | > 50 µg/mL | – | – | – | – | 0.3 µg/mL (≈ 1.18 µM) | 0.4 µg/mL (≈ 1.57 µM) |

From ChEMBL document CHEMBL1135344, “Synthesis and antiviral/antiproliferative activity of some N-sulphonylbenzimidazoles” (Bioorg Med Chem Lett, 2002)
